Consider two molecules from BindingDB's records for doi:10.1021/jm00144a035 (1982).

For the assay, the target named is Choline O-acetyltransferase (squid). Put plainly: Inhibition of choline acetyltransferase isolated from squid head ganglia.

By Ki is commonly meant a dissociation constant, usually derived from enzyme kinetics or from competition with a known ligand. Consider `Nc1c(S(=O)(=O)O)cc(Nc2ccc(Nc3nc(Nc4ccc(S(=O)(=O)O)cc4)nc(=O)[nH]3)c(S(=O)(=O)O)c2)c2c1C(=O)c1ccccc1C2=O` [1-Amino-4-{4-[4-hydroxy-6-(4-sulfo-phenylamino)-[1,3,5]triazin-2-ylamino]-3-sulfo-phenylamino}-9,10-dioxo-9,10-dihydro-anthracene-2-sulfonic acid], for which the affinity corresponds to a Ki of 1800 nM.

On to `CSSCCNC(=O)CCNC(=O)C(O)C(C)(C)COP(=O)(O)OP(=O)(O)OC[C@H]1O[C@@H](n2cnc3c(N)ncnc32)[C@H](O)[C@@H]1OP(=O)(O)O` (some centres not stated) [Methyldisulfanyl analogue of coenzyme A], for which the Ki amounted to 2300 nM. The Ki values of the last two molecules are within 1.5-fold of each other.
